{"source": "paper PMC5845353", "about": "“The selective cathepsin K inhibitor MIV-711 attenuates joint pathology in experimental animal models of osteoarthritis” (Journal of Translational Medicine, 2018)", "tested_on": "rabbits subjected to anterior cruciate ligament transection (ACLT)", "test": "Rabbit ACLT study, µCT of trabecular bone", "type": "in vivo", "from_the_text": "The animals were acquired following review and approval by the Institutional Animal Care and Use Committee (IACUC) at Numira (Salt Lake City, UT). The protocol was also reviewed and approved by the IACUC at Ibex Preclinical Research Inc. (Logan, UT). Male, New Zealand White rabbits (n = 32) were purchased from the Western Oregon Rabbit Co. (Philomath, OR). The animals were approximately 9 months old, weighed 3.7–4.5 kg at the start of the experiment and were randomized into four treatment groups based on body weight.\nPre-operative butorphanol (0.5–1.0 mg/kg, i.m.) for analgesia and glycopyrrolate (~ 0.1 mg/kg i.m.) were administered up to 15 min prior to induction. Anesthesia was induced by a mixture of ketamine (20–40 mg/kg, i.m.) and xylazine (5–10 mg/kg, i.m.), followed by placement of an endotracheal tube. General anesthesia was maintained with isoflurane. Perioperative cefazolin (40 mg/kg, i.v.) was administered, and […] (0.2 mg/kg, i.v.) was administered to reverse the effects of xylazine after endotracheal intubation was complete. A fentanyl patch (25 µg/h) was placed on a clipped area of the skin to provide post-operative analgesia. An incision of 1.5–2.5 cm was made in the skin over the medial side of the right knee under aseptic conditions. The patella was dislocated laterally and the knee placed in full flexion. The anterior cruciate ligament (ACL) was visualized and transected with an appropriate blade. In sham animals, the ACL was visualized but not transected. The joint was irrigated with sterile saline and closed. The muscle and skin were closed with suture and/or surgical glue. Butorphanol (0.5–1 mg/kg, i.m.) was administered after extubation to provide supplemental analgesia. The animals were then individually housed in stainless steel or plastic cages.\nStarting 1 week after sham operation or ACLT, animals were dosed daily for 7 weeks by oral gavage with either MIV-711 (synthesized by Medivir and given as a suspension in 1% Methocel A4C in water) or vehicle (1% Methocel A4C in water) at a dose volume of 4 mL/kg. The four treatment groups (n = 7 in each group) were: (1) sham + vehicle; (2) ACLT + vehicle; (3) ACLT + MIV-711, 30 µmol/kg (low dose) and (4) ACLT + MIV-711, 100 µmol/kg (high dose).\nFemora and tibias from all animals were subjected to µCT scanning without and with contrast reagent, to visualize bone and cartilage, respectively. Samples were scanned on a high-resolution, volumetric µCT scanner (μCT40, ScanCo Medical, Zurich, CH). The image data was acquired with the following parameters: 36 μm isotropic voxel resolution at 300 ms exposure time, 2000 views and 1 frame per view. Each sample was scanned twice, once for acquiring bone data and once for soft tissue data. After the bone scans, the knees were stained using hexabrix for contrast-enhanced imaging of the cartilage. The µCT-generated DICOM files were used to analyze the samples and to create volume renderings of the regions of interest (ROI). The raw data files were converted into a file format compatible with the segmentation software VHLab (Numira). VHLab was used for segmenting out the regions of interest (osteophyte, cartilage, and subchondral bone) for the femur and tibia of each sample. A region spanning 9 mm of the articulating surface of the femur and 6.5 mm of the tibia was selected for segmenting out the cartilage and subchondral bone in the anterior–posterior direction. After the segmentation process, the voxel count associated with each of the regions of interest was calculated using VHLab. The voxel count was then multiplied by the cubic voxel resolution to obtain volume measurements for the different ROI. Cartilage thickness was calculated using SCIRun (Scientific Computing and Imaging Institute, University of Utah). The distance from the bone to the outer surface of the articulating cartilage was calculated. An image was generated that translates the distances into a color map for viewing the thickness along the length of the cartilage. […]", "key": {"[1]": {"settings": "Femur Lateral, high dose 100 µmol/kg"}, "[2]": {"settings": "Femur Lateral, low dose 30 µmol/kg"}, "[3]": {"settings": "Femur Medial, high dose 100 µmol/kg"}, "[4]": {"settings": "Femur Medial, low dose 30 µmol/kg"}, "[5]": {"settings": "Tibia Lateral, high dose 100 µmol/kg"}, "[6]": {"settings": "Tibia Lateral, low dose 30 µmol/kg"}, "[7]": {"settings": "Tibia Medial, high dose 100 µmol/kg"}, "[8]": {"settings": "Tibia Medial, low dose 30 µmol/kg"}}, "note": "Marks after values point to notes of the source that are not given here."}
{"smiles": "C#C[C@@H]1CN(C(=O)[C@H](CC(C)C)NC(=O)c2ccc(-c3nc(N4CCN(C)CC4)sc3F)cc2)[C@@H]2C(=O)CO[C@H]12", "note": "[MIV-711]", "values": [{"measurement": "Bone surface", "setting": "[1]", "result": "101.7 ± 2.9", "unit": "mm^2"}, {"measurement": "Bone surface/volume", "setting": "[1]", "result": "18.7 ± 0.8 1/mm"}, {"measurement": "Connective density", "setting": "[1]", "result": "11.90 ± 1.51 1/mm^3"}, {"measurement": "Structure model index", "setting": "[1]", "result": "0.63 ± 0.11"}, {"measurement": "Tissue mineral density", "setting": "[1]", "result": "673.6 ± 7.0", "unit": "mgHA/ccm"}, {"measurement": "Trabecular bone volume", "setting": "[1]", "result": "5.5 ± 0.2", "unit": "mm^3"}, {"measurement": "Trabecular number", "setting": "[1]", "result": "2.55 ± 0.10 1/mm"}, {"measurement": "Trabecular separation", "setting": "[1]", "result": "0.40 ± 0.02", "unit": "mm"}, {"measurement": "Trabecular thickness", "setting": "[1]", "result": "0.19 ± 0.01", "unit": "mm"}, {"measurement": "Bone surface", "setting": "[2]", "result": "101.2 ± 4.3", "unit": "mm^2"}, {"measurement": "Bone surface/volume", "setting": "[2]", "result": "19.9 ± 1.3 1/mm"}, {"measurement": "Connective density", "setting": "[2]", "result": "13.51 ± 1.54 1/mm^3"}, {"measurement": "Structure model index", "setting": "[2]", "result": "0.73 ± 0.15"}, {"measurement": "Tissue mineral density", "setting": "[2]", "result": "669.6 ± 8.4", "unit": "mgHA/ccm"}, {"measurement": "Trabecular bone volume", "setting": "[2]", "result": "5.3 ± 0.5", "unit": "mm^3"}, {"measurement": "Trabecular number", "setting": "[2]", "result": "2.58 ± 0.16 1/mm"}, {"measurement": "Trabecular separation", "setting": "[2]", "result": "0.40 ± 0.03", "unit": "mm"}, {"measurement": "Trabecular thickness", "setting": "[2]", "result": "0.18 ± 0.01", "unit": "mm"}, {"measurement": "Bone surface", "setting": "[3]", "result": "105.2 ± 1.3", "unit": "mm^2"}, {"measurement": "Bone surface/volume", "setting": "[3]", "result": "15.1 ± 1.0 1/mm"}, {"measurement": "Connective density", "setting": "[3]", "result": "9.14 ± 0.63 1/mm^3"}, {"measurement": "Structure model index", "setting": "[3]", "result": "0.40 ± 0.07"}, {"measurement": "Tissue mineral density", "setting": "[3]", "result": "699.1 ± 10.3", "unit": "mgHA/ccm"}, {"measurement": "Trabecular bone volume", "setting": "[3]", "result": "7.2 ± 0.5", "unit": "mm^3"}, {"measurement": "Trabecular number", "setting": "[3]", "result": "3.71 ± 0.68 1/mm"}, {"measurement": "Trabecular separation", "setting": "[3]", "result": "0.30 ± 0.03", "unit": "mm"}, {"measurement": "Trabecular thickness", "setting": "[3]", "result": "0.22 ± 0.02", "unit": "mm"}, {"measurement": "Bone surface", "setting": "[4]", "result": "105.6 ± 3.8", "unit": "mm^2"}, {"measurement": "Bone surface/volume", "setting": "[4]", "result": "16.0 ± 1.6 1/mm"}, {"measurement": "Connective density", "setting": "[4]", "result": "11.42 ± 1.61 1/mm^3"}, {"measurement": "Structure model index", "setting": "[4]", "result": "0.48 ± 0.07"}, {"measurement": "Tissue mineral density", "setting": "[4]", "result": "698.4 ± 15.7", "unit": "mgHA/ccm"}, {"measurement": "Trabecular bone volume", "setting": "[4]", "result": "7.0 ± 0.7", "unit": "mm^3"}, {"measurement": "Trabecular number", "setting": "[4]", "result": "3.02 ± 0.20 1/mm"}, {"measurement": "Trabecular separation", "setting": "[4]", "result": "0.34 ± 0.02", "unit": "mm"}, {"measurement": "Trabecular thickness", "setting": "[4]", "result": "0.22 ± 0.03", "unit": "mm"}, {"measurement": "Bone surface", "setting": "[5]", "result": "152.7 ± 4.1", "unit": "mm^2"}, {"measurement": "Bone surface/volume", "setting": "[5]", "result": "14.9 ± 0.5 1/mm"}, {"measurement": "Connective density", "setting": "[5]", "result": "16.25 ± 2.01 1/mm^3"}, {"measurement": "Structure model index", "setting": "[5]", "result": "0.42 ± 0.11"}, {"measurement": "Tissue mineral density", "setting": "[5]", "result": "707.0 ± 6.6", "unit": "mgHA/ccm"}, {"measurement": "Trabecular bone volume", "setting": "[5]", "result": "10.3 ± 0.4* mm^3"}, {"measurement": "Trabecular number", "setting": "[5]", "result": "3.01 ± 0.16 1/mm"}, {"measurement": "Trabecular separation", "setting": "[5]", "result": "0.34 ± 0.02", "unit": "mm"}, {"measurement": "Trabecular thickness", "setting": "[5]", "result": "0.22 ± 0.01", "unit": "mm"}, {"measurement": "Bone surface", "setting": "[6]", "result": "153.6 ± 4.1", "unit": "mm^2"}, {"measurement": "Bone surface/volume", "setting": "[6]", "result": "16.0 ± 1.2 1/mm"}, {"measurement": "Connective density", "setting": "[6]", "result": "16.55 ± 1.95 1/mm^3"}, {"measurement": "Structure model index", "setting": "[6]", "result": "0.51 ± 0.12"}, {"measurement": "Tissue mineral density", "setting": "[6]", "result": "700.8 ± 10.6", "unit": "mgHA/ccm"}, {"measurement": "Trabecular bone volume", "setting": "[6]", "result": "9.9 ± 0.7", "unit": "mm^3"}, {"measurement": "Trabecular number", "setting": "[6]", "result": "2.96 ± 0.15 1/mm"}, {"measurement": "Trabecular separation", "setting": "[6]", "result": "0.34 ± 0.02", "unit": "mm"}, {"measurement": "Trabecular thickness", "setting": "[6]", "result": "0.21 ± 0.01", "unit": "mm"}, {"measurement": "Bone surface", "setting": "[7]", "result": "124.9 ± 4.6", "unit": "mm^2"}, {"measurement": "Bone surface/volume", "setting": "[7]", "result": "13.2 ± 0.2 1/mm"}, {"measurement": "Connective density", "setting": "[7]", "result": "8.47 ± 0.69 1/mm^3"}, {"measurement": "Structure model index", "setting": "[7]", "result": "0.41 ± 0.10"}, {"measurement": "Tissue mineral density", "setting": "[7]", "result": "726.9 ± 5.5", "unit": "mgHA/ccm"}, {"measurement": "Trabecular bone volume", "setting": "[7]", "result": "9.5 ± 0.5", "unit": "mm^3"}, {"measurement": "Trabecular number", "setting": "[7]", "result": "2.09 ± 0.15 1/mm"}, {"measurement": "Trabecular separation", "setting": "[7]", "result": "0.50 ± 0.04", "unit": "mm"}, {"measurement": "Trabecular thickness", "setting": "[7]", "result": "0.26 ± 0.00", "unit": "mm"}, {"measurement": "Bone surface", "setting": "[8]", "result": "124.9 ± 3.3", "unit": "mm^2"}, {"measurement": "Bone surface/volume", "setting": "[8]", "result": "14.6 ± 1.2 1/mm"}, {"measurement": "Connective density", "setting": "[8]", "result": "9.20 ± 1.08 1/mm^3"}, {"measurement": "Structure model index", "setting": "[8]", "result": "0.52 ± 0.16"}, {"measurement": "Tissue mineral density", "setting": "[8]", "result": "714.1 ± 13.1", "unit": "mgHA/ccm"}, {"measurement": "Trabecular bone volume", "setting": "[8]", "result": "8.9 ± 0.7", "unit": "mm^3"}, {"measurement": "Trabecular number", "setting": "[8]", "result": "2.05 ± 0.08 1/mm"}, {"measurement": "Trabecular separation", "setting": "[8]", "result": "0.49 ± 0.02", "unit": "mm"}, {"measurement": "Trabecular thickness", "setting": "[8]", "result": "0.25 ± 0.02", "unit": "mm"}, {"measurement": "trabecular bone volume, lateral tibia, difference vs. sham", "setting": "low dose 30 µmol/kg", "result": -8, "unit": "%"}]}
